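The concentration for 50% growth inhibition is given as GI50. At the TGI there is no net growth.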
Key:
Experiment in all cases: growth of human tumour cells (NCI), 384-well format
786-0 renal = system: 786-0 renal
A498 renal = system: A498 renal
A549 NSCLC = system: A549 NSCLC
ACHN renal = system: ACHN renal
BT-549 breast = system: BT-549 breast
CAKI-1 renal = system: CAKI-1 renal
CCRF-CEM leukemia = system: CCRF-CEM leukemia
COLO 205 colon = system: COLO 205 colon
DU-145 prostate = system: DU-145 prostate
EKVX NSCLC = system: EKVX NSCLC
HCC-2998 colon = system: HCC-2998 colon
HCT-15 colon = system: HCT-15 colon
HL-60(TB) leukemia = system: HL-60(TB) leukemia
HOP-62 NSCLC = system: HOP-62 NSCLC
HOP-92 NSCLC = system: HOP-92 NSCLC
HS 578T breast = system: HS 578T breast
HT29 colon = system: HT29 colon
IGROV1 ovarian = system: IGROV1 ovarian
KM12 colon = system: KM12 colon
M14 melanoma = system: M14 melanoma
MALME-3M melanoma = system: MALME-3M melanoma
MCF7 breast = system: MCF7 breast
MDA-MB-231 breast = system: MDA-MB-231 breast
MDA-MB-435 melanoma = system: MDA-MB-435 melanoma
MDA-MB-468 breast = system: MDA-MB-468 breast
MOLT-4 leukemia = system: MOLT-4 leukemia
NCI-H226 lung = system: NCI-H226 lung
NCI-H23 lung = system: NCI-H23 lung

## CC1(C)CCC2=C(O1)c1ccccc1C(=O)C2=O
786-0 renal
  GI50: 1.84 µM
  TGI: 3.37 µM
A498 renal
  GI50: 1.94 µM
  TGI: 3.47 µM
A549 NSCLC
  GI50: 1.91 µM
  TGI: 3.35 µM
ACHN renal
  GI50: 1.9 µM
  TGI: 3.32 µM
BT-549 breast
  GI50: 1.77 µM
  TGI: 3.16 µM
CAKI-1 renal
  GI50: 1.87 µM
  TGI: 3.28 µM
CCRF-CEM leukemia
  GI50: 1.89 µM
  TGI: 3.32 µM
COLO 205 colon
  GI50: 2.27 µM
  TGI: 3.73 µM
DU-145 prostate
  GI50: 1.85 µM
  TGI: 3.28 µM
EKVX NSCLC
  GI50: 1.75 µM
  TGI: 3.15 µM
HCC-2998 colon
  GI50: 1.75 µM
  TGI: 3.42 µM
HCT-15 colon
  GI50: 1.84 µM
  TGI: 3.26 µM
HL-60(TB) leukemia
  GI50: 1.44 µM
  TGI: 2.79 µM
HOP-62 NSCLC
  GI50: 1.61 µM
  TGI: 2.98 µM
HOP-92 NSCLC
  GI50: 1.88 µM
  TGI: 3.33 µM
HS 578T breast
  GI50: 1.7 µM
  TGI: 3.08 µM
HT29 colon
  GI50: 1.88 µM
  TGI: 3.31 µM
IGROV1 ovarian
  GI50: 2.02 µM
  TGI: 3.82 µM
KM12 colon
  GI50: 2.06 µM
  TGI: 3.8 µM
M14 melanoma
  GI50: 1.94 µM
  TGI: 3.37 µM
MALME-3M melanoma
  GI50: 1.99 µM
  TGI: 3.42 µM
MCF7 breast
  GI50: 1.79 µM
  TGI: 3.21 µM
MDA-MB-231 breast
  GI50: 1.88 µM
  TGI: 3.54 µM
MDA-MB-435 melanoma
  GI50: 1.86 µM
  TGI: 3.27 µM
MDA-MB-468 breast
  GI50: 1.2 µM
  TGI: 2.45 µM
MOLT-4 leukemia
  GI50: 1.76 µM
  TGI: 3.17 µM
NCI-H226 lung
  GI50: 2 µM
  TGI: 3.44 µM
NCI-H23 lung
  GI50: 1.37 µM
  TGI: 2.67 µM
